Data from patent publication US20240423998A1, “METHODS OF TREATING AGITATION AND OTHER DEMENTIA-ASSOCIATED BEHAVIORAL SYMPTOMS” (WOOLSEY PHARMACEUTICALS, INC., priority 2021, published 2024).
Structures can show the parent of a compound that is named as a salt.

Tests used:
[1] = in vivo, metabolite; cited from earlier work
[2] = tested on: agitation in patients with Alzheimer's Dementia (AD); assay: Clinical trial of oral fasudil in reducing agitation in patients with Alzheimer's Dementia (CMAI score); format: in vivo, human
Description: All the patients were treated for 6 weeks with 90 mg per day (30 mg TID) and a subset of patients was treated an additional 6 weeks with 180 mg per day (60 mg TID). […] A variety of assessments were conducted at baseline and at the end of treatment, including the NPI-Q and the CMAI.
Two baseline thresholds were set, and two analyses were done based on the two groupings that resulted. One threshold was based on the agitation/aggression domain of the NPI-Q and the other based on the CMAI score.
The first selection was based on NPI-Q score of ≥4.
The second selection required a baseline CMAI score of ≥20 and this yielded a 13-patient subgroup, having a mean baseline CMAI score of 34.4. […] All the patients selected using the NPI-Q agitation/aggression domain score of ≥4 were also included in this subgroup.
The analysis looked at the CMAI score prior to treatment and compared it to the last day of treatment (6 weeks for the 10 patients on the low dose and 12 weeks for the 3 patients on the high dose).

mice = details: six-month old mice, 10 mg/kg oral gavage once a day for 30 days; reduction indicates anxiety; cited from earlier work

## O=S(=O)(c1cccc2c(O)nccc12)N1CCCNCC1 [M3]
[1]
  half-life: about 8 hours

## O=S(=O)(c1cccc2cnccc12)N1CCCNCC1 [fasudil HCl hemihydrate, Hexahydro-1-(5-isoquinolinesulfonyl)-1H-1,4-diazepine monohydrochloride hemihydrate]
[2]; nineteen AD patients, 90 mg per day (30 mg TID) 6 weeks and 180 mg per day (60 mg TID) additional 6 weeks
  tolerability of treatment regimens: well tolerated

## O=S(=O)(c1cccc2cnccc12)N1CCCNCC1 [fasudil]
[2]; six patients with baseline NPI-Q score >=4, 90 mg per day (30 mg TID) for 6 weeks
  difference in mean CMAI score, baseline vs end of treatment: 22.3
[2]; six patients with baseline NPI-Q score >=4, 90 mg per day (30 mg TID) for 6 weeks, mean baseline CMAI 45.3
  mean CMAI score at the end of treatment: 23.0
[2]; thirteen patients with baseline CMAI score >=20, 6 weeks at 90 mg per day (10 patients) or additional 6 weeks at 180 mg per day (3 patients)
  difference in mean CMAI score, prior to treatment vs end of treatment: 12.6
[2]; thirteen patients with baseline CMAI score >=20, 6 weeks at 90 mg per day (10 patients) or additional 6 weeks at 180 mg per day (3 patients), mean baseline CMAI 34.4
  mean CMAI score at the end of treatment: 21.8
mice
  amount of time spent in the open arms of the maze: significantly reduced
